In publication PMC11811631 (RSC Chemical Biology, 2025):

Molecular target: ScoE (Streptomyces coeruleorubidus, UniProt A0A3B6UEU3)
Assay: LC-MS of pyrazole product […] after tetrazine derivatization
Assay type: biochemical

| SMILES | LC-MS of pyrazole product 8 after tetrazine derivatization (preferred chain length) | LC-MS of pyrazole product 8 after tetrazine derivatization (accepted chain length) |
| --- | --- | --- |
| CC(CC(=O)O)NCC(=O)O (centres unmarked) [6 (n = 1), methyl-6] | substrates that have a short alkyl chain, e.g., a methyl and propyl group | – |
| CCCC(CC(=O)O)NCC(=O)O (centres unmarked) [6 (n = 3), 6 with a propyl group] | – | substrates that have a short alkyl chain, e.g., a methyl and propyl group |
